Results from ChEMBL document CHEMBL5727794, “P2X7 modulators” (2020).

Key:
[1] = biological target: T1, P2X purinoceptor 7 (Rattus norvegicus, UniProt Q64663); test: (§1) On the day of the experiment, cell membrane preparations were made according to standard published methods. The total assay volume was 100 μl:10 μl compound (10×)+(b) 40 μl tracer (2.5×)+50 μl membrane (2×). The tracer used for the assay was tritiated A-804598. The compound can be prepared as described in the literature. […] The assay was terminated by filtration (GF/B filters pre-soaked with 0.3% PEI) and washed with washing buffer (Tris-HCl 50 mM). The IC50 generated in the binding assay was corrected for tracer concentration and affinity of the tracer to derive at the affinity (Ki) of the test compounds.
T1 sequence (Q64663 whole entry): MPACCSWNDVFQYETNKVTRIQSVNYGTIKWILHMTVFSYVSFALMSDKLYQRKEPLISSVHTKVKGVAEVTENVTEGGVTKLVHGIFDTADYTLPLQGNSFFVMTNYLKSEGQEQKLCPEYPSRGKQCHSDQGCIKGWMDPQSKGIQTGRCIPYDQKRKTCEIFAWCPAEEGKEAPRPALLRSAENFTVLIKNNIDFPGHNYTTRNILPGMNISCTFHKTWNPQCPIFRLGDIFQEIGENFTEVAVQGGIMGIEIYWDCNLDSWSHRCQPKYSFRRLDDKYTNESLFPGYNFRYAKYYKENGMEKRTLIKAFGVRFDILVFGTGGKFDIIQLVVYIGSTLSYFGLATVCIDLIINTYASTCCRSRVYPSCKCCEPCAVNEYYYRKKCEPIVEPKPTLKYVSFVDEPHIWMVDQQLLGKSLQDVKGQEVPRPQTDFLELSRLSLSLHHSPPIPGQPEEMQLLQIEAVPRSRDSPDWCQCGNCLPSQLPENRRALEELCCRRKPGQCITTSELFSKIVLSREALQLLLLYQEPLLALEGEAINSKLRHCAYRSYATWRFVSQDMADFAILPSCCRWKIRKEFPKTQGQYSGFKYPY

[2] = biological target: T2, P2X purinoceptor 7 (Homo sapiens, UniProt Q99572); test: as §1
T2 sequence (Q99572 whole entry): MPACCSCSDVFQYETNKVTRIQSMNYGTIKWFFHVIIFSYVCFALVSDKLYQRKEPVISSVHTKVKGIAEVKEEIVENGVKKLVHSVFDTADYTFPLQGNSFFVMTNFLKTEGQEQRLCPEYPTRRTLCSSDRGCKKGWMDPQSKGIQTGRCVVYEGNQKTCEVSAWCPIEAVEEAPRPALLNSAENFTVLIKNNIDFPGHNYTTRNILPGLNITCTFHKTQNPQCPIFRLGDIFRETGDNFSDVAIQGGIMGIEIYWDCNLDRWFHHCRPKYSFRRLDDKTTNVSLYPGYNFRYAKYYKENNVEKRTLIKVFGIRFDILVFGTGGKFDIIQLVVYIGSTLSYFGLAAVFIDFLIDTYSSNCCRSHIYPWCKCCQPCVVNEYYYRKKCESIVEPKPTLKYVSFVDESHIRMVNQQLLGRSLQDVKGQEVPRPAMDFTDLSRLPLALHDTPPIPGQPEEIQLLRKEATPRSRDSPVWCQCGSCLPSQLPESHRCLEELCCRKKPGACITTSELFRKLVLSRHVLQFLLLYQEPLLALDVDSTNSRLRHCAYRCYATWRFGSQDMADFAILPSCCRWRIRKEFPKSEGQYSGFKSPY

IC50 [1]: 10.2 nM
IC50 [2]: 16.5 nM
SMILES: Cc1c(C(=O)N2Cc3nnn(C4=NN=CC4)c3CC2C)cccc1C(F)(F)F (configuration not stated)
